In US20230114241A1, “METHODS OF TREATING EPILEPSY USING THE SAME” (Trevena, Inc., priority 2019, published 2023):

Tests used:
[1] = molecular target: T1, human sphingosine-1-phosphate receptor 1 (S1P1) (Homo sapiens, UniProt P21453); assay: Inhibition of cAMP production (HTRF cAMP HiRange), S1P1 CHO-K1 cells; format: cell-based; settings: for Emax: CHO-K1, efficacy normalized to maximum efficacy of fingolimod, read-out: hS1P1 CAMP SPAN; for EC50: read-out: hS1P1 CAMP pEC50 (converted)
In short: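 Intracellular cAMP changes read by TR-FRET (HTRF HiRange, 1 h room temperature) after 30 min compound exposure at 37 °C. Cells: overnight-plated CHO-K1 stably expressing tagged human S1P1 with EA-β-arrestin2. Responses normalized to fingolimod.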
Target sequence in this assay (P21453 whole entry): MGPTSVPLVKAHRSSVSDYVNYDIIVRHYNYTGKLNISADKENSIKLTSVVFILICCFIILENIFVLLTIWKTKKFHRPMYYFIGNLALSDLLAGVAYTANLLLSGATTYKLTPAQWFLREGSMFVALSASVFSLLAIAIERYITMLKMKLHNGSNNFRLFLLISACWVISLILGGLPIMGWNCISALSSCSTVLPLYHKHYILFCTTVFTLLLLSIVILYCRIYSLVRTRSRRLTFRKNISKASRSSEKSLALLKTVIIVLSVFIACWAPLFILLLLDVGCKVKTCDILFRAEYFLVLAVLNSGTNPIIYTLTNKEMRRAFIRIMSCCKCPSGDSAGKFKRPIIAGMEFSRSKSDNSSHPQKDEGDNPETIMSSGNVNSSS

[2] = molecular target: T1, human sphingosine-1-phosphate receptor 1 (S1P1); assay: β-Arrestin2 recruitment assay (PathHunter), S1P1 CHO-K1 cells; format: cell-based; settings: for Emax: efficacy normalized to maximum efficacy of fingolimod, read-out: hS1P1 B-arrestin2 SPAN; for EC50: β-arrestin2 recruitment, read-out: hS1P1 B-arrestin2 pEC50 (converted)
In short: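 Agonist-driven β-arrestin2 recruitment measured by β-galactosidase complementation after 60 min compound exposure at 37 °C and 1 h detection at room temperature. Cells: stable CHO-K1 line expressing tagged human S1P1 with EA-β-arrestin2, plated the night before. Data expressed relative to fingolimod.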
Target sequence in this assay (P21453 whole entry): as above
Target sequence in this assay (P32121 whole entry partner): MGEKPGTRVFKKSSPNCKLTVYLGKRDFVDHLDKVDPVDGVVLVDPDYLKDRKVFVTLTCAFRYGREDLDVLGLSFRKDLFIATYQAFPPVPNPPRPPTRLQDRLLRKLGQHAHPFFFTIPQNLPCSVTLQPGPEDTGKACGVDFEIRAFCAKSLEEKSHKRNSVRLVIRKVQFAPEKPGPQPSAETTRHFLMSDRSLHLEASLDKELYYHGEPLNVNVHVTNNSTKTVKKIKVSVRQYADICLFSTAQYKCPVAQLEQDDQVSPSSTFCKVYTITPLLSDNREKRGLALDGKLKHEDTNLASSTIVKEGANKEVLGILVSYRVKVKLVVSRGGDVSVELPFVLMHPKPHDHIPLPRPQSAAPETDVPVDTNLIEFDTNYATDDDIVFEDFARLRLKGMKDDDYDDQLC

[3] = inhibition of cAMP production, potency
[4] = CHO-K1, β-arrestin2 recruitment
[5] = inhibition of cAMP production, S1P1

| Compound | Emax ([1]; inhibition of cAMP production) | EC50 [1, 3] | Emax [2, 4] | EC50 ([2]; potency) | Emax [1] | EC50 [1, 5] | Emax ([2]; CHO-K1) | EC50 ([2]; S1P1) |
| --- | --- | --- | --- | --- | --- | --- | --- | --- |
| Brc1ccccc1-c1nc(-c2ccc3c(c2)nnn3Cc2ccccn2)no1 [Compound 45, 5-(2-bromophenyl)-3-(1-(pyridin-2-ylmethyl)-1H-benzo[d][1,2,3]triazol-5-yl)-1,2,4-oxadiazole] | < 75% | > 0.316 µM | < 75% | > 10 µM | – | – | – | – |
| COc1cccc(-c2nc(-c3ccc4[nH]ccc4c3)ns2)c1 [Compound 364, 5-[5-(3-methoxyphenyl)-1,2,4-thiadiazol-3-yl]-1H-indole] | > 75% | > 0.316 µM | < 75% | > 10 µM | – | – | – | – |
| Cc1ccsc1-c1nc(-c2ccc3c(c2)nnn3CC(C)(C)CO)no1 [Compound 524, 2,2-dimethyl-3-(5-(5-(3-methylthiophen-2-yl)-1,2,4-oxadiazol-3-yl)-1H-benzo[d] [1,2,3]triazol-1-yl)propan-1-ol] | – | – | – | – | > 75% | < 0.316 µM | < 75% | < 10 µM |
| CCC1(CC)CC(=O)c2cc(-c3noc(-c4ccc(NCC5CC5)c(C#N)c4)n3)ccc2O1 [Compound 444, 2-((cyclopropyl-methyl)amino)-5-(3-(2,2-diethyl-4-oxochroman-6-yl)-1,2,4-oxadiazol-5-yl)benzonitrile] | – | – | – | – | < 75% | > 0.316 µM | < 75% | < 10 µM |
| CC(C)n1nnc2cc(-c3cc(-c4ccccc4)n(C)c3)ccc21 [Compound 544, 5-(1-methyl-5-phenyl-1H-pyrrol-3-yl)-1-(propan-2-yl)-1H-1,2,3-benzotriazole] | – | – | – | – | < 75% | > 0.316 µM | < 75% | < 10 µM |
| CCC1(CC)CC(=O)c2cc(-c3noc(-c4cccnc4)n3)ccc2O1 [Compound 559, 2,2-diethyl-6-(5-(pyridin-3-yl)-1,2,4-oxadiazol-3-yl)chroman-4-one] | – | – | – | – | > 75% | < 0.316 µM | > 75% | < 10 µM |
| CC(C)n1ccc2cc(-c3noc(-c4ccc(F)cc4)n3)ccc21 [Compound 400, 5-(4-fluorophenyl)-3-(1-isopropyl-1H-indol-5-yl)-1,2,4-oxadiazole] | – | – | – | – | < 75% | > 0.316 µM | < 75% | > 10 µM |
| CC(C)(CO)Cn1nnc2cc(-c3noc(-c4ccncc4C(F)(F)F)n3)ccc21 [Compound 528, 2,2-dimethyl-3-(5-(5-(3-(trifluoro-methyl)pyridin-4-yl)-1,2,4-oxadiazol-3-yl)-1H-benzo[d][1,2,3]triazol-1-yl)propan-1-ol] | – | – | – | – | > 75% | > 0.316 µM | < 75% | > 10 µM |
| Cc1occc1-c1noc(-c2ccc3c(c2)nnn3C(C)C)n1 [Compound 491, 5-[3-(2-methylfuran-3-yl)-1,2,4-oxadiazol-5-yl]-1-(propan-2-yl)-1H-1,2,3-benzotriazole] | – | – | – | – | > 75% | < 0.316 µM | > 75% | < 10 µM |
| COc1ccccc1-c1csc(-c2ccc3c(ccn3C(C)C)n2)n1 [Compound 411, 2-(1-isopropyl-1H-pyrrolo[3,2-b]pyridin-5-yl)-4-(2-methoxyphenyl)thiazole] | – | – | – | – | < 75% | > 0.316 µM | < 75% | > 10 µM |
| Brc1ccccc1-c1nc(-c2ccc3c(c2)nnn3Cc2ccncc2)no1 [Compound 48, 5-(2-bromophenyl)-3-(1-(pyridin-4-ylmethyl)-1H-benzo[d][1,2,3]triazol-5-yl)-1,2,4-oxadiazole] | < 75% | > 0.316 µM | < 75% | > 10 µM | – | – | – | – |
| COc1cccc(-c2csc(-c3ccc4c(ccn4C(C)C)n3)n2)c1 [Compound 410, 2-(1-isoproplpyrrolo[3,2-b]pyridin-5-yl)-4-(3-methoxyphenyl)thiazole] | – | – | – | – | < 75% | > 0.316 µM | < 75% | > 10 µM |
| CCC1(CC)CC(=O)c2cc(-c3nc(-c4ccsc4)no3)ccc2O1 [Compound 468, 2,2-diethyl-6-(3-(thiophen-3-yl)-1,2,4-oxadiazol-5-yl)chroman-4-one] | – | – | – | – | > 75% | < 0.316 µM | > 75% | < 10 µM |
| CCC1(CC)CC(=O)c2cc(-c3noc(-c4ccc(NC(C)C)c(C#N)c4)n3)ccc2O1 [Compound 443, 5-(3-(2,2-diethyl-4-oxochroman-6-y)-1,2,4-oxadiazol-5-yl)-2-(isopropyl-amino)benzonitrile] | – | – | – | – | > 75% | < 0.316 µM | < 75% | < 10 µM |
| CC(C)(CO)Cn1nnc2cc(-c3noc(-c4ccccc4Cl)n3)ccc21 [Compound 526, 3-(5-(5-(2-chloro-phenyl)-1,2,4-oxadiazol-3-yl)-1H-benzo[d][1,2,3]triazol-1-yl)-2,2-dimethylpropan-1-ol] | – | – | – | – | > 75% | > 0.316 µM | > 75% | > 10 µM |
| Cc1ccccc1-c1csc(-c2ccc3c(ccn3C(C)C)n2)n1 [Compound 409, 2-(1-isopropyl-pyrrolo [3,2-b]pyridin-5-yl)-4-(o-tolyl)thiazole] | – | – | – | – | > 75% | > 0.316 µM | < 75% | > 10 µM |
| Oc1ccc(-c2noc(-c3ccc4c(c3)nnn4C3CCCC3)n2)cc1 [Compound 13, 4-[5-(1-cyclopentyl-1H-1,2,3-benzotriazol-5-yl)-1,2,4-oxadiazol-3-yl]phenol] | < 75% | < 0.316 µM | < 75% | < 10 µM | – | – | – | – |
| Cc1ccc(-c2noc(-c3ccc4c(c3)nnn4C3CCCC3)n2)s1 [Compound 192, 1-cyclopentyl-5-[3-(5-methylthiophen-2-yl)-1,2,4-oxadiazol-5-yl]-1H-1,2,3-benzotriazole] | < 75% | > 0.316 µM | < 75% | > 10 µM | – | – | – | – |
| CC(C)n1nnc2cc(-c3noc(-c4cccc(F)c4)n3)ccc21 [Compound 64, 5-(3-fluorophenyl)-3-(1-isopropyl-benzotriazol-5-yl)-1,2,4-oxadiazole] | > 75% | < 0.316 µM | > 75% | > 10 µM | – | – | – | – |
| CCCn1nnc2cc(-c3nc(-c4ccccc4)no3)ccc21 [Compound 160, 5-(3-phenyl-1,2,4-oxadiazol-5-yl)-1-propyl-1H-1,2,3-benzotriazole] | < 75% | > 0.316 µM | < 75% | > 10 µM | – | – | – | – |
| CCC1(CC)CC(=O)c2cc(-c3nc(-c4cnccn4)no3)ccc2O1 [Compound 617, 2,2-diethyl-6-(3-(pyrazin-2-yl)-1,2,4-oxadiazol-5-yl)chroman-4-one] | – | – | – | – | < 75% | > 0.316 µM | > 75% | > 10 µM |
| O=C1c2cc(-c3nc(-c4ccncc4)no3)ccc2OC(CO)(CO)C1Br (stereo not shown) [Compound 483, 3-bromo-2,2-bis(hydroxy-methyl)-6-[3-(pyridin-4-yl)-1,2,4-oxadiazol-5-yl]-3,4-dihydro-2H-1-benzopyran-4-one] | – | – | – | – | > 75% | > 0.316 µM | < 75% | > 10 µM |
| CC(C)Nc1ccc(-c2nc(-c3ccc4c(c3)C(=O)NCC4)no2)cc1C#N [Compound 514, 2-(isopropylamino)-5-(3-(l-oxo-1,2,3,4-tetra-hydroisoquinolin-7-yl)-1,2,4-oxadiazol-5-yl)benzonitrile] | – | – | – | – | > 75% | < 0.316 µM | < 75% | < 10 µM |
| CCC1(CC)CC(=O)c2cc(-c3nc(-c4cccnc4C(F)(F)F)no3)ccc2O1 [Compound 562, 2,2-diethyl-6-(3-(2-(trifluoromethyl)pyridin-3-yl)-1,2,4-oxadiazol-5-yl)chroman-4-one] | – | – | – | – | > 75% | < 0.316 µM | > 75% | < 10 µM |
| CC(C)C(c1ccccc1)c1noc(-c2ccc3c(c2)nnn3C(C)C)n1 (stereo not shown) [Compound 56, 5-[3-(2-methyl-1-phenyl-propyl)-1,2,4-oxadiazol-5-yl]-1-(propan-2-yl)-1H-1,2,3-benzotriazole] | < 75% | > 0.316 µM | < 75% | > 10 µM | – | – | – | – |
| Cc1ccc(-c2nc(-c3ccc4c(c3)nnn4C3CCCC3)no2)cc1 [Compound 235, 3-(1-cyclopentyl-1H-benzo[d][1,2,3]triazol-5-yl)-5-(p-tolyl)-1,2,4-oxadiazole] | < 75% | > 0.316 µM | < 75% | > 10 µM | – | – | – | – |
| CCC1(CC)CC(=O)c2cc(-c3nc(-c4ccnc(NS(C)(=O)=O)c4)no3)ccc2O1 [Compound 556, N-(4-(5-(2,2-diethyl-4-oxochroman-6-yl)-1,2,4-oxadiazol-3-yl)pyridin-2-yl)methanesulfonamide] | – | – | – | – | > 75% | < 0.316 µM | < 75% | < 10 µM |
| C=CCNc1ccc(-c2nc(-c3ccc4[nH]nnc4c3)no2)cc1C#N [Compound 145, 5-(3-(1H-benzo[d] [1,2,3]triazol-5-yl)-1,2,4-oxadiazol-5-yl)-2-(allylamino)benzonitrile] | > 75% | < 0.316 µM | < 75% | < 10 µM | – | – | – | – |
